{
  "source": "patent US20230165856A1",
  "about": "“DAPAGLIFLOZIN AND AMBRISENTAN FOR THE PREVENTION AND TREATMENT OF COVID-19” (AstraZeneca AB, priority 2020, published 2023)",
  "origin": "cited, not measured here",
  "key": {"[1]": {"conditions": "HF patients with and without type 2 diabetes mellitus"}, "[2]": {"conditions": "endotoxaemic sheep"}, "[3]": {"target": "T1, endothelin A (ETA) receptor (Homo sapiens, UniProt P25101)", "T1 sequence (P25101 21-427)": "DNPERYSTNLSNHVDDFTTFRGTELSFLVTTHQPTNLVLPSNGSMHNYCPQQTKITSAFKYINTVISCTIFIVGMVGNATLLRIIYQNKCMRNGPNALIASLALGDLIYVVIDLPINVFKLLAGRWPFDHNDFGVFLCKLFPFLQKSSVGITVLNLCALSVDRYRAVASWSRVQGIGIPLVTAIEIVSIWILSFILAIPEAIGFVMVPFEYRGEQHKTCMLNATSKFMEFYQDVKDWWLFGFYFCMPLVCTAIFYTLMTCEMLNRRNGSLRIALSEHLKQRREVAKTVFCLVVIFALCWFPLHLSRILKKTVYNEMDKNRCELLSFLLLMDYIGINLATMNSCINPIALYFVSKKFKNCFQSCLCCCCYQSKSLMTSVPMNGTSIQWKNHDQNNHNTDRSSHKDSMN"}, "[4]": {"conditions": "experimental pig model of acute lung injury"}, "[5]": {"conditions": "human, in vivo"}},
  "note": "Read-outs that look alike come from different tables or passages of the source.",
  "data": [
    {"smiles": "CCOc1ccc(Cc2cc([C@@H]3O[C@H](CO)[C@@H](O)[C@H](O)[C@H]3O)ccc2Cl)cc1", "note": "[dapagliflozin]", "values": [
      {"measurement": "cardiovascular (CV) death", "setting": "[1]", "value": "reduced"},
      {"measurement": "risk for hospitalization for heart failure (HF)", "setting": "[1]", "value": "reduce the risk"}
    ]},
    {"smiles": "COc1ccccc1Oc1c(NS(=O)(=O)c2ccc(C(C)C)cn2)nc(-c2ccnc(-c3nnn[nH]3)c2)nc1OCCO", "note": "[Tezosentan]", "values": [
      {"measurement": "lung injury", "setting": "[2]", "value": "attenuated lung injury"}
    ]},
    {"smiles": "COC(c1ccccc1)(c1ccccc1)[C@H](Oc1nc(C)cc(C)n1)C(=O)O", "note": "[Ambrisentan, (2S)-2-[(4,6-dimethylpyrimidin-2-yl)oxy]-3-methoxy-3,3-diphenylpropanoic acid]", "values": [
      {"measurement": "selectivity for the ETA versus the ETB receptor", "setting": "[3]", "value": "approximately 4000 fold"},
      {"measurement": "selectivity for the ET-A receptor compared to bosentan", "setting": "[3]; compared to bosentan", "value": "greater selectivity"}
    ]},
    {"smiles": "COc1cc(OC)nc(O[C@H](C(=O)O)C(OC)(c2ccccc2)c2ccccc2)n1", "note": "[LU-135252]", "values": [
      {"measurement": "oxygenation", "setting": "[4]", "value": "improved oxygenation"}
    ]},
    {"smiles": "COc1ccccc1Oc1c(NS(=O)(=O)c2ccc(C(C)(C)C)cc2)nc(-c2ncccn2)nc1OCCO", "note": "[Bosentan]", "values": [
      {"measurement": "RVSP", "setting": "[5]", "value": "rapid and sustained improvement"},
      {"measurement": "oxygenation", "setting": "[5]", "value": "gradual improvement"}
    ]}
  ]
}
